According to patent US8614231B2, “Immunosuppressor based on the blockage of TCR-Nck interaction” (Consejo Superior de Investigaciones Cientificas, priority 2008, dated 2013):
“Also recorded” adds a separate entry of the source.

Tests used:
[1] = tested on: Human Jurkat T lymphocyte cell line; test: Toxicity by propidium iodide exclusion and flow cytometry, Jurkat; assay type: cell-based; settings: 48 hours, even at the highest dose
Procedure: (§1) Human Jurkat T lymphocyte cell line and human Raji lymphoblastoid B cell line were incubated with the indicated concentrations of CBM-1 for 48 hours. The toxicity of the compound was estimated by propidium iodide exclusion and flow cytometry. The two cell lines remained with 100% viability after 48 hours, even at the highest dose of the compound.

[2] = tested on: human IL2-dependent lymphoblasts; test: Proliferation of human IL2-dependent lymphoblasts (IL2R-dependent proliferation); assay type: cell-based; settings: at concentrations of 20 μM; 100 IU/ml IL2, 3 days
Procedure: (§2) PBMNCs purified from healthy donors were labelled with CFSE and incubated for 5 days on plates coated with anti-CD3 OKT3 antibody in the presence of various doses of the compounds indicated, among them CBM-1. The proliferation was evaluated by flow cytometry in accordance with the loss of green fluorescence (CFSE) within the CD4+ and CD8+ populations. A parallel experiment was performed on the proliferation of human IL2-dependent lymphoblasts. Purified PBMNC from healthy donors were stimulated with PHA for 48 hours and labelled with CFSE. The were subsequently cultured for 3 days in the presence of 100 IU/ml of human recombinant IL2 in the presence of concentrations of the compounds used, particularly CBM-1.

human T lymphocytes [3] = test: Proliferation of human T lymphocytes stimulated with anti-CD3 antibodies (CFSE, flow cytometry); assay type: cell-based; settings: for IC50: Homo sapiens, T-lymphocyte, 120 h, PBMNC, 5 days
Procedure: For the next round of selection of the compounds resulting from virtual screening with potential for blocking Nck-CD3ε interaction, PBMNC purified from healthy donors were labelled with fluorescence and incubated for 5 days on plates covered with anti-CD3 OKT3 antibodies in the presence of different doses of these compounds. Proliferation of T lymphocytes was evaluated by flow cytometry in accordance with the loss of green fluorescence (CFSE) within the CD8+ population.
as §2

human T lymphocytes [4] = test: Cytokine secretion by human T lymphocytes (PBMNC) stimulated with anti-CD3 antibodies; assay type: cell-based; settings: for IC50: Homo sapiens, T-lymphocyte, supernatant at 72 hours, anti-CD3
Procedure: Inhibition by CBM-1 of the secretion of cytokines by human T lymphocytes in response to stimulation with anti-CD3 antibodies. Peripheral blood mononuclear cells (PBMNC) purified from healthy donors were stimulated on plates coated with anti-CD3 OKT3 antibodies in the presence of various doses of CBM-1 for 72 hours. The concentration of the indicated cytokines in the supernatant (IL-10, IFN-γ, and TFN-β) was evaluated by multiparametric flow cytometry (BD cytometric bead array).
The effect of CBM-1 on the production of cytokines was measured in an assay in which human PBMNC were stimulated with anti-CD3 antibodies. The supernatant of these cells was collected at 72 hours and several cytokines were simultaneously measured by a flow cytometry assay.

SH3.1 domain of Nckα = target: T1, SH3.1 domain of Nckα (Homo sapiens, UniProt P16333); test: NMR chemical displacements in the SH3.1 domain on compound binding; settings: residues Trp41 and Tyr50/Phe53 participate
T1 construct: The three-dimensional structure of the SH3.1 domain of Nckα
Procedure: Displacements of the amino acid residues in the SH3.1 domain caused by the interaction with compound CBM-1. The lateral chains of the amino acids that changed their position after binding the compound are represented. The changes are consequent to the binding of compound CBM-1 to the pocket visualised in virtual screening.
The three-dimensional structure of the SH3.1 domain of Nckα, in the presence and in the absence of peptide 11R085, was determined in parallel (with the collaboration of the laboratory of Professors María Angeles Jiménez and Manuel Rico, of the Instituto de Química-Física Rocasolano, CSIC, Madrid) (FIG. 6). This enabled validation of the prediction of the structural computer model used for virtual screening. In addition, it allowed measurement of the chemical displacements caused to the structure by compound CBM-1 (FIG. 7).
The displacements of residues in the SH3.1 domain validate the prediction of the interaction of the SH3.1 domain with CBM-1 at a molecular level and are consistent with the model.

T lymphocytes = test: Inhibitory action on the activation of T lymphocytes (summary statement); assay type: cell-based; settings: both in mice and humans; concentrations as low as
From the text: It inhibited the production of IFNγ, IL-10 and TNFβ, as well as the generation of human cells that produce IFNγ in response to anti-CD3 and anti-CD28 in human lymphocytes stimulated with anti-CD3 and anti-CD28 antibodies.

[5] = tested on: human Raji lymphoblastoid B cell line; test: Toxicity by propidium iodide exclusion and flow cytometry, Raji; assay type: cell-based; settings: 48 hours, even at the highest dose
Procedure: as §1

[6] = tested on: OT-I transgenic mouse primary lymphocytes; test: IL2 production and antigen-induced proliferation of mouse T lymphocytes; assay type: cell-based
From the text: Thus, Nck-CD3ε interaction as a molecular target for immunosuppressor development has been validated.

[7] = tested on: C57BL/6 mouse spleen cells; test: Intracellular IFNγ expression by mouse CD4+ T cells stimulated with anti-CD3 + anti-CD28; assay type: cell-based; settings: Lymphocyte, anti-CD3 + anti-CD28 48 hours, then brefeldin A 6 hours, read-out: IC50 generation of IFNγ-secreting Th1 lymphocytes
From the text: Intracellular expression of IFNγ in response to stimulation with a mixture of anti-CD3 and anti-CD28.
The cells were first stained with CD4-PE and after fixing and rinsing they were stained with anti-IFNγ antibody.

[8] = 72 hours, up to concentrations of 30 μM

- IC50 (human T lymphocytes [4]; read-out: IC50 IFNγ production): 0.3 µM
- IC50 (human T lymphocytes [4]; read-out: IC50 IL10 production): 0.2 µM
- IC50 (human T lymphocytes [4]; read-out: IC50 TNFβ production): 0.2 µM
- binding to the SH3.1 domain (NMR) (SH3.1 domain of Nckα): binds to a hydrophobic pocket
- IC50 [7]: 0.8 µM
Compound: c1ccc(C2=C(CN3CCCCC3)C(c3ccccc3)c3ccccc3O2)cc1 (centres unmarked) [CBM-1]
- viability [1]: 100%
- inhibition of the proliferation of human IL2-dependent lymphoblasts [2]: did not significantly inhibit
- IC50 (human T lymphocytes [3]; anti-CD3 OKT3, CD4+ population, read-out: IC50 proliferation of CD4+ lymphocytes induced by anti-CD3): 2 µM
- IC50 (human T lymphocytes [3]; anti-CD3 OKT3, CD8+ population, read-out: IC50 proliferation of CD8+ lymphocytes induced by anti-CD3): 3 µM
- blocking activity on the proliferation of the lymphocytes (in words) (human T lymphocytes [3]; anti-CD3 OKT3, 5 days, compounds from virtual screening): highest activity and least toxicity; also recorded: best and least toxic
- effect on the production of IL5 (human T lymphocytes [4]; [8]): did not show any effect; also recorded: no effect
- effect on the production of IL6 (human T lymphocytes [4]; [8]): did not show any effect; also recorded: no effect
- effect on the release of IL1-β (human T lymphocytes [4]; 72 hours, various doses): did not show any effect
- concentration with inhibitory action on the activation of T lymphocytes (T lymphocytes): ≥ 0.1 µM
- viability [5]: 100%
- proliferation of antigen-dependent mouse T lymphocytes (in words) [6]: inhibited
- release of IL2 (in words) ([6]; mouse T lymphocytes): inhibited
